Each compound was assayed against MAGE-A11:PCF11 (Homo sapiens (Human), UniProt P43364) (assay: TR-FRET single point screening at 15 μM). Details: single point TR-FRET screening at 15 μM against MAGE-A11:PCF11.
Chain of MAGE-A11:PCF11 (P43364 218-429): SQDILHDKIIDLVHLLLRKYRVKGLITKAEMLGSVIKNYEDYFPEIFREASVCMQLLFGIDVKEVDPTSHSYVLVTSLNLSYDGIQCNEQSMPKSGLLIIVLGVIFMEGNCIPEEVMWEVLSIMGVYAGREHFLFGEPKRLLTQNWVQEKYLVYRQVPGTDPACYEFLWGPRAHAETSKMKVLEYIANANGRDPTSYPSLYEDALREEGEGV
Assay type: binding
Parameters: unit not given here
Outline: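 Single-point screen at 15 μM (0.25% DMSO) measuring disruption of GST-MAGEA11 (5 nM) binding to FAM-PCF11_4 peptide (200 nM) detected by Tb-anti-GST (5 nM). Buffer 50 mM Tris pH 7.5, 20 mM MgCl2, 0.1 mg/ml BSA, 1 mM DTT; 90 min at ~25 °C; 520/490 nm ratio converted to % inhibition versus controls.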
Work on `CCCN(CCCNc1c2ccc(Cl)cc2nc2ccc(OC)cc12)Cc1ccccc1C(=O)O` [SJ000520951] yielded a TR-FRET signal of −258.6.
Work on `CCCN(CCCNc1c2ccc(Cl)cc2nc2ccc(OC)cc12)Cc1cccn1C` [SJ000522987] yielded a TR-FRET signal of −302.6.
With `COc1ccc2ncc(S(=O)(=O)c3ccccc3)c(N3CCN(Cc4ccccc4)CC3)c2c1` [SJ000247248] the TR-FRET signal was −71.16.
For `Oc1c(F)cc(F)cc1CN(CCCCNc1ccnc2cc(Cl)ccc12)Cc1ccccc1` [SJ000357506], the TR-FRET signal was 30.65.
With `CN(C)CC(=O)Nc1c2c(nc3ccccc13)N(C)CC2` [SJ000332030] the TR-FRET signal was 17.04.
Work on `Fc1cccc(CN(CCCCNc2ccnc3cc(Cl)ccc23)Cc2ccccc2)c1` [SJ000361199] yielded a TR-FRET signal of 28.34.
`CCCN(CCCNc1c2ccc(Cl)cc2nc2ccc(OC)cc12)Cc1ccc(Br)o1` [SJ000520929] gave a TR-FRET signal of −137.3.
`COc1ccc(O)c(CN2CCC(Nc3ccnc4cc(Cl)ccc34)CC2)c1` [SJ000357527] was tested, and the TR-FRET signal was 7.779.
With `COc1ccccc1N1CCN(c2c(S(=O)(=O)c3ccc(C)cc3)cnc3ccccc23)CC1` [SJ000117065] the TR-FRET signal was −8.687.
`COc1cccc(F)c1CN1CCC(Nc2ccnc3cc(Cl)ccc23)CC1` [SJ000357498] was tested, and the TR-FRET signal was 10.5.
`COc1ccc2nc3cc(Cl)ccc3c(NCCCNCc3cccc(C#N)c3)c2c1` [SJ000523037] showed a TR-FRET signal of −333.2.
Work on `CCOc1ccc(C(=O)c2cnc3ccc(C)cc3c2N2CCN(CC)CC2)cc1` [SJ000247339] yielded a TR-FRET signal of −10.81.
Compound `CN1CCN(c2c(C(=O)c3ccccc3)cnc3ccc(Cl)cc23)CC1` [SJ000247338] has a TR-FRET signal of −5.573.
`CCCN(CCCNc1c2ccc(Cl)cc2nc2ccc(OC)cc12)Cc1ccccc1F` [SJ000520944] was tested, and the TR-FRET signal was −118.6.
In the case of `CC(C)(C)CCN(CCCCNc1ccnc2cc(Cl)ccc12)Cc1ccccc1` [SJ000357537], the TR-FRET signal is reported as 34.54.
In the case of `FC(F)(F)Oc1ccc(CN(CCCCNc2ccnc3cc(Cl)ccc23)Cc2ccccc2)cc1` [SJ000520451], the TR-FRET signal is reported as 39.87.
Work on `COc1cccc(CN(CCCCNc2ccnc3cc(Cl)ccc23)Cc2ccccc2)c1` [SJ000361210] yielded a TR-FRET signal of 11.72.
For `Clc1ccc2c(NCCCCN(Cc3ccccc3)Cc3ccc4ccccc4c3)ccnc2c1` [SJ000361205], the TR-FRET signal was 24.64.
For `COc1ccc2ncc(S(=O)(=O)c3ccc(C)c(C)c3)c(N3CCN(c4ccccc4)CC3)c2c1` [SJ000117051], the TR-FRET signal was −52.48.
Compound `CCOc1ccc2ncc(S(=O)(=O)c3ccc(Cl)cc3)c(N3CCN(c4ccccc4)CC3)c2c1` [SJ000117054] has a TR-FRET signal of −446.9.
`CCOc1ccc2ncc(C(=O)c3ccc(C)cc3)c(N3CCN(CC)CC3)c2c1` [SJ000247284] gave a TR-FRET signal of −14.25.
For `CCCCNCCCNc1c2ccc(Cl)cc2nc2ccc(OC)cc12` [SJ000520995], the TR-FRET signal was −405.5.
For `CCCN(CCCNc1c2ccc(Cl)cc2nc2ccc(OC)cc12)CC(CC)CC` [SJ000520939], the TR-FRET signal was −160.3.
`Cc1ccc(C)c(N2CCN(c3c(S(=O)(=O)c4ccccc4)cnc4ccc(F)cc34)CC2)c1` [SJ000117083] gave a TR-FRET signal of −15.38.
Work on `COc1ccc2nc3cc(Cl)ccc3c(NCCCNCCC(C)(C)C)c2c1` [SJ000520994] yielded a TR-FRET signal of −456.3.
Compound `CCOC(=O)c1cnc2ccc(Br)cc2c1NCCN1CCOCC1` [SJ000031339] has a TR-FRET signal of −47.24.
`COc1ccc(CN2CCC(Nc3ccnc4cc(Cl)ccc34)CC2)cc1OC` [SJ000523103] showed a TR-FRET signal of 11.75.
In the case of `CCOc1ccc2ncc(S(=O)(=O)c3ccc(Cl)cc3)c(N3CCN(CC)CC3)c2c1` [SJ000083969], the TR-FRET signal is reported as −4.989.
`CCCN(CCCNc1c2ccc(Cl)cc2nc2ccc(OC)cc12)Cc1ccc(OC)cc1` [SJ000520943] showed a TR-FRET signal of −241.4.
With `CCCN(CCCNc1c2ccc(Cl)cc2nc2ccc(OC)cc12)Cc1cnn(C)c1` [SJ000522980] the TR-FRET signal was −276.6.
For `Fc1ccc(CN(CCCCNc2ccnc3cc(Cl)ccc23)Cc2ccccc2)cc1` [SJ000522725], the TR-FRET signal was 30.2.
`CCN1CCN(c2c(S(=O)(=O)c3ccccc3)cnc3ccc(Cl)cc23)CC1` [SJ000083960] showed a TR-FRET signal of 4.43.
Work on `COc1ccccc1N1CCN(c2c(S(=O)(=O)c3ccc(C)c(C)c3)cnc3ccccc23)CC1` [SJ000117068] yielded a TR-FRET signal of −5.706.
With `COc1ccc2nc3cc(Cl)ccc3c(NCCCNCc3ccncc3)c2c1` [SJ000523023] the TR-FRET signal was −127.6.
Compound `CCCN(CCCNc1c2ccc(Cl)cc2nc2ccc(OC)cc12)CCC(C)c1ccccc1` (stereo not shown) [SJ000522731] has a TR-FRET signal of −121.
Work on `CCCN(CCCNc1c2ccc(Cl)cc2nc2ccc(OC)cc12)Cc1ccc([N+](=O)[O-])s1` [SJ000522735] yielded a TR-FRET signal of −154.4.
In the case of `Cc1ccc(C)c(CN2CCC(Nc3ccnc4cc(Cl)ccc34)CC2)c1` [SJ000523106], the TR-FRET signal is reported as 18.68.
For `CCOC(=O)c1cnc2c(C)c(Cl)ccc2c1NCCN(C)C` [SJ000037393], the TR-FRET signal was −1.333.
Compound `CCOc1ccc2ncc(S(=O)(=O)c3ccccc3)c(N3CCN(c4ccccc4)CC3)c2c1` [SJ000083975] has a TR-FRET signal of −12.06.
Work on `O=S(=O)(c1ccc(F)cc1)c1cnc2ccc(Cl)cc2c1N1CCN(c2ccc(F)cc2)CC1` [SJ000117063] yielded a TR-FRET signal of −4.205.

Same assay, conditions: single point TR-FRET screening of quinoline compounds against MAGE-A11:PCF11; 15 μM
For `FC(F)(F)c1ccc(-c2ccc3c(NCCCNCc4ccco4)ccnc3c2)cc1` [SJ000311278], the TR-FRET signal was 56.21.
Work on `CCCN(CCCNc1ccnc2cc(C(F)(F)F)ccc12)Cc1nc(C)cs1` [SJ000521010] yielded a TR-FRET signal of 0.8927.
With `CCCN(CCCNc1ccnc2cc(C(F)(F)F)ccc12)Cc1ccc(C)o1` [SJ000361261] the TR-FRET signal was 23.91.
In the case of `Clc1ccc2c(NCCCN(Cc3ccccc3)Cc3ccoc3)ccnc2c1` [SJ000361170], the TR-FRET signal is reported as 12.84.
With `CCOC(=O)c1cnc2c(Cl)cccc2c1NCCCN1CCOCC1` [SJ000279431] the TR-FRET signal was 4.102.
Work on `CCCN(CCCCCC(=O)OC)CCCNc1c2ccc(Cl)cc2nc2ccc(OC)cc12` [SJ000575151] yielded a TR-FRET signal of −37.41.
For `CCCN(CCCNc1ccnc2cc(C(F)(F)F)ccc12)Cc1ncc[nH]1` [SJ000575181], the TR-FRET signal was 9.345.
Work on `CCCCN(CCC)CCCNc1ccnc2cc(Cl)ccc12` [SJ000357571] yielded a TR-FRET signal of 12.78.
`CCCN(CCCNc1ccnc2cc(Cl)ccc12)Cc1ccc(C(=O)OC)cc1` [SJ000523042] was tested, and the TR-FRET signal was 16.72.
For `CCCN(CCCNc1c2ccc(Cl)cc2nc2ccc(OC)cc12)Cc1cccc2ccccc12` [SJ000520952], the TR-FRET signal was −40.77.
Work on `CCCN(CCCNc1ccnc2cc(C(F)(F)F)ccc12)Cc1cccc(OC)c1O` [SJ000361260] yielded a TR-FRET signal of 15.49.
`CCCN(CCCNc1ccnc2cc(Cl)ccc12)Cc1[nH]cnc1C` [SJ000523010] showed a TR-FRET signal of 12.05.
Compound `CCCN(CCCNc1c2ccc(Cl)cc2nc2ccc(OC)cc12)CCCSC` [SJ000522730] has a TR-FRET signal of 0.7867.
`CCOC(=O)c1cnc2c(C)c(Cl)ccc2c1NCCCN1CCOCC1` [SJ000129912] gave a TR-FRET signal of −23.26.
`Clc1ccc2c(NCCCNCc3csc4ccccc34)ccnc2c1` [SJ000521033] showed a TR-FRET signal of 33.38.
`CCCN(CCCNc1ccnc2cc(C(F)(F)F)ccc12)Cc1ccc(C)s1` [SJ000361258] was tested, and the TR-FRET signal was 19.08.
`CCCN(CCCNc1c2ccc(Cl)cc2nc2ccc(OC)cc12)CC1CCOC1` (stereo not shown) [SJ000575149] was tested, and the TR-FRET signal was −35.94.
Work on `CCCN(CCCNc1ccnc2cc(Cl)ccc12)Cc1cccc(C#N)c1` [SJ000522763] yielded a TR-FRET signal of 12.91.
Compound `CCCN(CCCNc1ccnc2cc(C(F)(F)F)ccc12)CCC(C)(C)C` [SJ000520476] has a TR-FRET signal of 32.33.
Compound `c1coc(CNCCCNc2ccnc3cc(CC4CCCCC4)ccc23)c1` [SJ000311250] has a TR-FRET signal of 40.66.
In the case of `CCCN(CCCNc1ccnc2cc(C(F)(F)F)ccc12)Cc1ccsc1` [SJ000361254], the TR-FRET signal is reported as 28.88.
`Cc1ccsc1CNCCCNc1ccnc2cc(Cl)ccc12` [SJ000311189] gave a TR-FRET signal of 6.554.
`Clc1ccc2c(NCCCN(Cc3ccccc3)Cc3ccco3)ccnc2c1` [SJ000312668] was tested, and the TR-FRET signal was 0.5217.
`CCCN(CCCNc1ccnc2cc(C(F)(F)F)ccc12)Cc1cccc(F)c1` [SJ000521008] was tested, and the TR-FRET signal was 27.85.
Work on `CCCN(CCCNc1c2ccc(Cl)cc2nc2ccc(OC)cc12)Cc1cc2ccccc2s1` [SJ000522962] yielded a TR-FRET signal of −21.58.
`CCCN(CCCNc1c2ccc(Cl)cc2nc2ccc(OC)cc12)Cc1c(F)cccc1C(F)(F)F` [SJ000522968] gave a TR-FRET signal of 23.09.
`CCCN(CCCNc1c2ccc(Cl)cc2nc2ccc(OC)cc12)Cc1c(Cl)ccc(Cl)c1Cl` [SJ000523021] showed a TR-FRET signal of 40.
For `CCCN(CCCNc1c2ccc(Cl)cc2nc2ccc(OC)cc12)Cc1ccncc1` [SJ000520918], the TR-FRET signal was −1.797.
With `CCCN(CCCNc1ccnc2cc(Cl)ccc12)Cc1c(Cl)ccc(Cl)c1Cl` [SJ000523046] the TR-FRET signal was 17.75.
With `FC(F)(F)c1ccc2c(NCCCNCc3nccs3)ccnc2c1` [SJ000521046] the TR-FRET signal was 7.779.
`CCCN(CCCNc1ccnc2cc(C(F)(F)F)ccc12)Cc1ccc(CC)cc1` [SJ000521009] showed a TR-FRET signal of 31.77.
In the case of `O=[N+]([O-])c1ccc(CN(CCCNc2ccnc3cc(Cl)ccc23)Cc2ccccc2)cc1` [SJ000361179], the TR-FRET signal is reported as 20.2.
For `CSCCCNCCCNc1ccnc2cc(Cl)ccc12` [SJ000523051], the TR-FRET signal was 14.97.
`c1coc(CNCCCNc2ccnc3cc(C4CCCCC4)ccc23)c1` [SJ000311262] was tested, and the TR-FRET signal was 32.96.
Work on `Clc1ccc2c(NCCCNCc3nc4ccccc4s3)ccnc2c1` [SJ000521034] yielded a TR-FRET signal of 4.695.
`CCCN(CCCNc1c2ccc(Cl)cc2nc2ccc(OC)cc12)Cc1csc2ccccc12` [SJ000522970] was tested, and the TR-FRET signal was −51.69.
In the case of `CCCN(CCCNc1ccnc2cc(C(F)(F)F)ccc12)Cc1nccs1` [SJ000575189], the TR-FRET signal is reported as 8.665.
`CCCN(CCCNc1ccnc2cc(C(F)(F)F)ccc12)Cc1ccc[nH]1` [SJ000361255] was tested, and the TR-FRET signal was 30.66.
For `CCCN(CCCNc1c2ccc(Cl)cc2nc2ccc(OC)cc12)Cc1ccc([N+](=O)[O-])cc1` [SJ000520949], the TR-FRET signal was −9.039.
